Results reported in ChEMBL document CHEMBL5236579, “Hydrophobicity Determines the Bacterial Killing Rate of α-Helical Antimicrobial Peptides and Influences the Bacterial Resistance Development” (J Med Chem, 2022).
Converted amounts (≈) assume the structure as drawn. The source made the active and inactive calls. The calls are words filed in the database; no cut-off is given here. Where a SMILES comes first, the peptide text is derived from it.

How the values were obtained:
[1] = tested on: Vibrio parahaemolyticus; test: Induction of morphological changes in Vibrio parahaemolyticus ATCC17802 assessed as massive cell collapse incubated at 5 times MIC and measured after 60 mins by scanning electron microscopy based analysis; format: functional, organism-based
[2] = tested on: Staphylococcus aureus; test: Antimicrobial activity against clinical isolates Staphylococcus aureus by two fold broth microdilution method; format: functional
[3] = tested on: Vibrio parahaemolyticus; test: Induction of morphological changes in Vibrio parahaemolyticus ATCC17802 assessed as cellular inclusion leakage incubated at 5 times MIC and measured after 60 mins by scanning electron microscopy based analysis; format: functional, organism-based
[4] = tested on: Cell membrane; test: Induction of cytoplasmic membrane permeabilization in Vibrio parahaemolyticus […] assessed as calcein transmembrane diffusion into interior of gaint unilamellar vesicles by measuring time to equilibrium between inside and outside of vesicles at 2 ug/mL by confocal microscopy based calcein-AM leakage assay; format: cell membranes; conditions: dose 2.0 µg/ml
[5] = tested on: Cell membrane; test: Induction of outer membrane permeabilization in Escherichia coli ATCC25722 assessed as increase fluorescence intensity at 0.5 to 2 times of MIC by NPN uptake assay; format: cell membranes; conditions: time <= 15.0 min, TDE = time-dependent effect
[6] = tested on: Cell membrane; test: Induction of inner membrane permeabilization in Vibrio parahaemolyticus ATCC17802 assessed as increase in PI fluorescence intensity at 5 times MIC by propidium iodide penetration assay; format: cell membranes; conditions: time <= 200.0 min
[7] = tested on: Peritoneal macrophage; test: Cytotoxicity against mouse peritoneal macrophage cells incubated for 48 hrs by MTT assay; format: toxicity, cell-based; conditions: dose < 250 µg/ml
[8] = tested on: Vibrio parahaemolyticus; test: Antimicrobial activity against Vibrio parahaemolyticus ATCC17802 by two fold broth microdilution method; format: functional
[9] = tested on: Lipopolysaccharide (LPS); test: Binding affinity to Escherichia coli LPS assessed as dissociation constant measured upto 600 sec by surface plasmon resonance imaging method
[10] = tested on: Cell membrane; test: Induction of outer membrane permeabilization in Escherichia coli ATCC25722 assessed as increase fluorescence intensity measured upto 15 mins by NPN uptake assay; format: cell membranes
[11] = tested on: Escherichia coli; test: In vivo antibacterial activity against Escherichia coli ATCC25722 infected in Balb/c mouse model assessed as reduction in bacterial CFU count on skin at 20 ug/ml applied 4 hrs after infection and measured after 120 mins; format: functional, organism-based; conditions: dose 20.0 µg/ml
[12] = tested on: Vibrio parahaemolyticus; test: Induction of morphological changes in Vibrio parahaemolyticus ATCC17802 assessed as surface fibrosis incubated at 5 times MIC and measured after 60 mins by scanning electron microscopy based analysis; format: functional, organism-based
[13] = tested on: Cell membrane; test: Binding affinity to Vibrio parahaemolyticus ATCC17802 cell membrane assessed as increase in fluorescence intensity measured after 120 mins by flow cytometry analysis (reference value: 1.88%); format: cell membranes
[14] = tested on: Cell membrane; test: Induction of inner membrane permeabilization in Vibrio parahaemolyticus ATCC17802 assessed as calcein leakage at 5 times MIC by calcein-AM leakage assay; format: cell membranes; conditions: time <= 200.0 min, TDE = time-dependent effect
[15] = tested on: Vibrio parahaemolyticus; test: Bactericidal activity against Vibrio parahaemolyticus ATCC17802 assessed as killing rate at 0.5 X MIC by measuring time limit of detection by bacterial killing kinetic assay; format: functional
[16] = tested on: Cell membrane; test: Induction of inner membrane permeabilization in Vibrio parahaemolyticus ATCC17802 at 5 times MIC measured upto 200 mins by propidium iodide penetration assay; format: cell membranes
[17] = tested on: Cell membrane; test: Binding affinity to Vibrio parahaemolyticus ATCC17802 cell membrane assessed as increase in fluorescence intensity measured after 30 mins by flow cytometry analysis (reference value: 1.85%); format: cell membranes
[18] = Effect on morphological changes in POPC/POPG (3:1) bilayer membrane assessed as formation of bulge aggregates by measuring the height of bulges at 2 ug/ml incubated for 40 mins under neutral pH and low ionic strength by atomic force microscopic analysis; format: cell membranes; conditions: Cell membrane, dose 2.0 µg/ml
[19] = Hemolytic activity in human erythrocytes measured after 30 mins; format: toxicity, cell-based; conditions: erythrocyte, 0.5 h
[20] = tested on: Staphylococcus aureus; test: Antimicrobial activity against Staphylococcus aureus ATCC25923 by two fold broth microdilution method; format: functional; conditions: read-out: MIC
[21] = tested on: Cell membrane; test: Induction of outer membrane permeabilization in Vibrio parahaemolyticus ATCC17802 assessed as increase fluorescence intensity at 0.5 to 2 times of MIC by NPN uptake assay; format: cell membranes; conditions: time <= 15.0 min, TDE = time-dependent effect
[22] = tested on: Escherichia coli; test: In vivo antibacterial activity against Escherichia coli ATCC25722 infected in Balb/c mouse model assessed as reduction in bacterial CFU count on skin at 20 ug/ml incubated for 6 hrs post infection and measured after 2 hrs post compound treatment; format: functional, organism-based; conditions: dose 20.0 µg/ml, time 8.0 hrs
[23] = tested on: HaCaT; test: Cytotoxicity against human HaCaT cells incubated for 48 hrs by MTT assay; format: toxicity, cell-based; conditions: dose < 250 µg/ml
[24] = tested on: Vibrio parahaemolyticus; test: Induction of bacterial resistance in Vibrio parahaemolyticus ATCC17802 assessed as fold increase in MIC treated over 30 serial passages measured after 24 hrs; format: functional
[25] = tested on: Cell membrane; test: Induction of outer membrane permeabilization in Vibrio parahaemolyticus ATCC17802 assessed as increase fluorescence intensity measured upto 15 mins by NPN uptake assay; format: cell membranes
[26] = tested on: Lipopolysaccharide (LPS); test: Binding affinity to Escherichia coli LPS assessed as LPS neutralizing activity measured after 5 mins by LPS neutralization assay
[27] = tested on: Escherichia coli; test: Antimicrobial activity against Escherichia coli ATCC27622 by two fold broth microdilution method; format: functional
[28] = tested on: Bacillus cereus; test: Antimicrobial activity against clinical isolates Bacillus cereus by two fold broth microdilution method; format: functional
[29] = tested on: Cell membrane; test: Induction of bacterial inner membrane permeabilization in Vibrio parahaemolyticus ATCC17802 assessed as calcein leakage from large unilamellar vesicles liposomes at 5 times MIC by fluorescence based microplate reader assay; format: cell membranes; conditions: time <= 60.0 min, TDE = time-dependent effect
[30] = tested on: Vibrio parahaemolyticus; test: Induction of morphological changes in Vibrio parahaemolyticus ATCC17802 assessed as massive cell collapse incubated at 5 times MIC and measured after 15 mins by scanning electron microscopy based analysis; format: functional, organism-based
[31] = tested on: Vibrio parahaemolyticus; test: Induction of bacterial resistance in Vibrio parahaemolyticus ATCC17802 assessed as change in MIC treated over 30 serial passages measured after 24 hrs; format: functional, organism-based
[32] = tested on: Cell membrane; test: Induction of bacterial inner membrane permeabilization in Vibrio parahaemolyticus ATCC17802 assessed as calcein leakage from large unilamellar vesicles liposomes at 5 times MIC measured upto 60 mins by fluorescence based microplate reader assay; format: cell membranes
[33] = tested on: Lipopolysaccharide (LPS); test: Binding affinity to Escherichia coli LPS assessed as LPS neutralizing activity measured after 60 mins by LPS neutralization assay
[34] = tested on: Vibrio parahaemolyticus; test: Induction of morphological changes in Vibrio parahaemolyticus ATCC17802 assessed as cellular inclusion leakage incubated at 5 times MIC and measured after 15 mins by scanning electron microscopy based analysis; format: functional, organism-based
[35] = tested on: Vibrio parahaemolyticus; test: Induction of morphological changes in Vibrio parahaemolyticus ATCC17802 assessed as surface fibrosis incubated at 5 times MIC and measured after 15 mins by scanning electron microscopy based analysis; format: functional, organism-based
[36] = tested on: Vibrio parahaemolyticus; test: Induction of morphological changes in Vibrio parahaemolyticus ATCC17802 assessed as massive cell collapse incubated at 5 times MIC and measured after 180 mins by scanning electron microscopy based analysis; format: functional, organism-based
[37] = tested on: Vibrio parahaemolyticus; test: Induction of morphological changes in Vibrio parahaemolyticus ATCC17802 assessed as cellular inclusion leakage incubated at 5 times MIC and measured after 180 mins by scanning electron microscopy based analysis; format: functional, organism-based
[38] = tested on: Vibrio parahaemolyticus; test: Induction of morphological changes in Vibrio parahaemolyticus ATCC17802 assessed as surface fibrosis incubated at 5 times MIC and measured after 180 mins by scanning electron microscopy based analysis; format: functional, organism-based

Structure (SMILES) | MIC [2] [µg/mL] | TIME [4] [h] | Activity [5] | Activity [6] | Activity [7] | MIC [8] [µg/mL] | Kd [9] [µM] | Activity [10] | Activity [11] | Activity [13] [%] | Activity [14] | Time [15] [min] | Activity [16] | Activity [17] [%] | Activity [18] [nm] | Activity [19] | MIC [20] [µg/mL] | Activity [21] | MIC [27] [µg/mL] | MIC [28] [µg/mL] | further results
CC[C@H](C)[C@H](NC(=O)[C@H](CC(C)C)NC(=O)[C@H](CCCNC(=N)N)NC(=O)[C@H](CC(C)C)NC(=O)[C@H](CC(C)C)NC(=O)[C@H](CCCCN)NC(=O)[C@H](CCCCN)NC(=O)[C@H](Cc1ccccc1)NC(=O)[C@H](CC(C)C)NC(=O)CNC(=O)[C@@H](N)CC(C)C)C(=O)N[C@@H](CCCCN)C(=O)N[C@@H](CCCCN)C(=O)NCC(=O)N[C@@H](Cc1ccccc1)C(=O)N[C@@H](CCCCN)C(=O)N[C@@H](CCCCN)C(=O)O (H-LGLFKKLLRLIKKGFKK-OH) | 18.8 (≈ 9.23 µM) | < 0.25 | Tde | Active | Dose-Dependent Effect | 4.69 (≈ 2.31 µM) | 49.4 | Dose-Dependent Effect | Active | 99.4 | Tde | 60 | Active | 64.3 | 1 | Toxic | 2.34 (≈ 1.15 µM) | Tde | 9.38 (≈ 4.62 µM) | 4.69 (≈ 2.31 µM) | Activity [1]: Active; Activity [3]: Active; Activity [12]: Active; Activity [22]: Active; Activity [23]: Dose-Dependent Effect; fold change (FC) [24]: 2; Activity [25]: Dose-Dependent Effect; Activity [26]: inactive
CC[C@H](C)[C@H](NC(=O)[C@H](CC(C)C)NC(=O)[C@H](CCCNC(=N)N)NC(=O)[C@H](CC(C)C)NC(=O)[C@H](CC(C)C)NC(=O)[C@H](CCCCN)NC(=O)[C@H](CCCCN)NC(=O)[C@H](Cc1ccccc1)NC(=O)[C@H](CC(C)C)NC(=O)CNC(=O)[C@@H](N)CC(C)C)C(=O)N[C@@H](CCCCN)C(=O)N[C@@H](CCCCN)C(=O)NCC(=O)N[C@@H](Cc1ccccc1)C(=O)N[C@@H](CCCCN)C(=O)N[C@@H](CC(C)C)C(=O)O (H-LGLFKKLLRLIKKGFKL-OH) | 9.38 (≈ 4.65 µM) |  |  | Active |  | 4.69 (≈ 2.33 µM) |  |  |  |  | Tde | 30 | Active |  |  |  | 1.17 (≈ 0.58 µM) |  | 9.38 (≈ 4.65 µM) | 9.38 (≈ 4.65 µM) | Activity [29]: Tde
CC[C@H](C)[C@H](NC(=O)[C@H](CC(C)C)NC(=O)[C@H](CCCNC(=N)N)NC(=O)[C@H](CC(C)C)NC(=O)[C@H](CC(C)C)NC(=O)[C@H](CCCCN)NC(=O)[C@H](CCCCN)NC(=O)[C@H](Cc1ccccc1)NC(=O)[C@H](CC(C)C)NC(=O)CNC(=O)[C@@H](N)CC(C)C)C(=O)N[C@@H](CC(C)C)C(=O)N[C@@H](CCCCN)C(=O)NCC(=O)N[C@@H](Cc1ccccc1)C(=O)N[C@@H](CCCCN)C(=O)N[C@@H](CC(C)C)C(=O)O (H-LGLFKKLLRLILKGFKL-OH) | 9.38 (≈ 4.69 µM) | < 0.25 | Tde | Active | Dose-Dependent Effect | 4.69 (≈ 2.34 µM) | 82.1 | Dose-Dependent Effect | Active | 88.1 | Tde | 15 | Active | 98.5 | 20 | Toxic | 1.17 (≈ 0.585 µM) | Tde | 9.38 (≈ 4.69 µM) | 9.38 (≈ 4.69 µM) | Activity [30]: Active; Activity [31]: inactive; Activity [32]: Active; Activity [33]: Active; Activity [34]: Active; Activity [35]: Active; Activity [22]: Active; Activity [23]: Dose-Dependent Effect; Activity [25]: Dose-Dependent Effect; Activity [26]: Active
CC[C@H](C)[C@H](NC(=O)[C@H](CCCCN)NC(=O)[C@H](CCCNC(=N)N)NC(=O)[C@H](CC(C)C)NC(=O)[C@H](CC(C)C)NC(=O)[C@H](CCCCN)NC(=O)[C@H](CCCCN)NC(=O)[C@H](Cc1ccccc1)NC(=O)[C@H](CC(C)C)NC(=O)CNC(=O)[C@@H](N)CCCNC(=N)N)C(=O)N[C@@H](CCCCN)C(=O)N[C@@H](CCCCN)C(=O)NCC(=O)N[C@@H](Cc1ccccc1)C(=O)N[C@@H](CCCCN)C(=O)N[C@@H](CCCCN)C(=O)O (H-RGLFKKLLRKIKKGFKK-OH) | 18.8 (≈ 8.98 µM) | 1 | Tde | Active | Dose-Dependent Effect | 4.69 (≈ 2.25 µM) | 23.5 | Dose-Dependent Effect | inactive | 99.5 |  | 120 | Active | 20.6 | 1 | Toxic | 2.34 (≈ 1.12 µM) | Tde | 4.69 (≈ 2.25 µM) | 9.38 (≈ 4.49 µM) | Activity [36]: Active; Activity [33]: Active; Activity [37]: Active; Activity [38]: Active; Activity [22]: Active; Activity [23]: Dose-Dependent Effect; fold change (FC) [24]: 16; Activity [25]: Dose-Dependent Effect; Activity [26]: inactive
